Laboratory results reported in article PMC11576293, “New series of 4,6-diaryl pyrimidines: facile synthesis and antiproliferative activity as dual EGFR/VEGFR-2 inhibitors” (Frontiers in Chemistry, 2024).
“And” between values parts separate entries of the source, which are not always exact repeats. Equal entries are not always repeated.

How the values were obtained:
[1] = target: VEGFR-2 (Homo sapiens, UniProt P35968); test: VEGFR-2 inhibitory assay
[2] = Experimental lipophilicity by RP-TLC; format: physicochemical
Description: The RP-TLC method was used to measure the lipophilicity parameters (RMo, b, and Co) described in the experimental section. The mobile phase consisted of different proportions of water and organic modifier (MeOH). RF and RM values were obtained for each ratio of organic modifier/water system (Supplementary Table S3), and a linear regression analysis was achieved to obtain the lipophilicity chromatographic descriptors (RMo, b, and Co, see Table 6). Relative lipophilicity (RMo) describes the partitioning of the solute between pure water and nonpolar stationary phase. In contrast, the second lipophilicity parameter (Co) represents the concentration of organic modifier in the mobile phase in which the solute is equally distributed between two phases (i.e., RM = 0, and Rf = 0.5). Also, Co is known to be widely used in QSAR analysis as it embraces both the specific hydrophobic surface area of the solute and RMo. […] Finally, the slope of the regression line (b) was used as a descriptor of the specific hydrophobic surface area of the compound. In a series of structurally related compounds, b is linearly correlated with RMo, resulting in a linear relationship that is the basic feature of the chromatographic determination of lipophilicity. […] Moreover, substituents affected tested compounds’ measured lipophilicity parameter (RMo) values. Higher RMo values were found with lipophilic derivatives containing the benzyl group (14, 22, and 28), while lower RMo values were found with derivatives containing alkyl or allyl groups (19, 26, and 27). An interesting contradiction was found with experimental lipophilicity value of 28 and its congener 14, where compound 28 was found more lipophilic than its congener 14 even though it contains two methoxy groups and according to ChemDraw® and MolSoft® programs, derivative 14 should be more lipophilic while the MOE® program expects values matching our findings. […] Also, S-allyl derivatives were nearly equipotent to S-alkyl congeners as antiproliferative agents but quite different in terms of lipophilicity.

[3] = system: Bcl-2; test: Bcl-2 inhibition assay; format: cell-based, human; settings: A-549 cell line
Experimental: 4.2.8. Bcl-2 inhibition assay
Mix all reagents thoroughly without foaming before use. Wash the microwells twice with approximately 300 μL Wash Buffer per well with thorough aspiration of microwell contents between washes. Take caution not to scratch the surface of the microwells. After the last wash, empty the wells and tap microwell strips on absorbent pad or paper towel to remove excess Wash Buffer. Use the microwell strips immediately after washing or place upside down on a wet absorbent paper for not longer than 15 minutes. […] Add 100 μL of Sample […]
Diluent in duplicate to all standard wells and to the blank wells. Prepare standard (1:2 dilution) in duplicate ranging from 32 ng/mL to 0.5 ng/mL. Add 100 μL of Sample Diluent, in duplicate, to the blank wells. Add 80 μL of Sample Diluent, in duplicate, to the sample wells. Add 20 μL of each Sample, in duplicate, to the designated wells. Add 50 μL of diluted biotin-conjugate to all wells, including the blank wells. Cover with a plate cover and incubate at room temperature, on a microplate shaker at 100 rpm if available, for 2 hours. Remove plate cover and empty the wells.
Wash microwell strips 3 times as described in step 2. Add 100 μL of diluted Streptavidin-HRP to all wells, including the blank wells. Cover with a plate cover and incubate at room temperature, on a microplate shaker at 100 rpm if available, for 1 hour. Remove plate cover and empty the wells.
Wash microwell strips 3 times as described in step 2. Proceed to the next step. Pipette 100 μl of mixed TMB Substrate Solution to all wells, including the blanks. Incubate the microwell strips at room temperature (18° to 25°C) for about 15 minutes, if available on a rotator set at 100 rpm.
Avoid direct exposure to intense light. The point, at which the substrate reaction is stopped, is often determined by the ELISA reader. Many ELISA readers record absorbance only up to 2.0
O.D. Therefore, the color development within individual microwells must be watched by the person running the assay and the substrate reaction stopped before positive wells are no longer properly detectable. Stop the enzyme reaction by quickly pipetting 100 μL of Stop Solution into each well, including the blank wells. It is important that the Stop Solution is spread quickly and uniformly throughout the microwells to completely inactivate the enzyme. Results must be read immediately after the Stop Solution is added or within one hour i f the microwell strips are stored at 2 - 8°C in the dark. Read absorbance of each microwell on a spectrophotometer using 450 nm as the primary wavelength.

[4] = target: T1, EGFR (Homo sapiens, UniProt P00533); test: EGFR-TK inhibitory assay; format: biochemical; settings: read-out: EGFR inhibition IC50 ± SEM
T1 construct: amino acids 645–1186; His6 (N); made in house; host or cells: Sf-9 insect cells (baculovirus; pBlueBacHis2B / pFASTBacHTc)

[5] = system: MDA-MB-435; test: NCI-60 single-dose screen; format: cell-based; settings: Homo sapiens, single dose 10 µM, '-' = no inhibition, read-out: % Growth Inhibition
Outline: (§1)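 Was run as a one-dose (10 μM) screen by the NCI Developmental Therapeutics Program, covering 60 tumour cell lines from nine cancer types including renal, melanoma and CNS.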

[6] = system: TK-10; test: NCI-60 single-dose screen; format: cell-based; settings: Homo sapiens, single dose 10 µM, '-' = no inhibition, read-out: % Growth Inhibition
Outline: as §1

[7] = system: HL-60(TB); test: NCI-60 single-dose screen; format: cell-based; settings: Homo sapiens, single dose 10 µM, '-' = no inhibition, read-out: % Growth Inhibition
[8] = system: MDA-MB231/ATCC; test: NCI-60 single-dose screen; format: cell-based; settings: Homo sapiens, MDA-MB-231, single dose 10 µM, '-' = no inhibition, read-out: % Growth Inhibition
Outline: as §1

[9] = system: K-562; test: NCI-60 single-dose screen; format: cell-based; settings: Homo sapiens, K562, single dose 10 µM, '-' = no inhibition, read-out: % Growth Inhibition
Outline: as §1

[10] = system: UACC-257; test: NCI-60 single-dose screen; format: cell-based; settings: Homo sapiens, single dose 10 µM, '-' = no inhibition, read-out: % Growth Inhibition
Outline: as §1

[11] = system: SN12C; test: NCI-60 single-dose screen; format: cell-based; settings: Homo sapiens, single dose 10 µM, '-' = no inhibition, read-out: % Growth Inhibition
Outline: as §1

Sequence of VEGFR-2 (P35968 20-1356): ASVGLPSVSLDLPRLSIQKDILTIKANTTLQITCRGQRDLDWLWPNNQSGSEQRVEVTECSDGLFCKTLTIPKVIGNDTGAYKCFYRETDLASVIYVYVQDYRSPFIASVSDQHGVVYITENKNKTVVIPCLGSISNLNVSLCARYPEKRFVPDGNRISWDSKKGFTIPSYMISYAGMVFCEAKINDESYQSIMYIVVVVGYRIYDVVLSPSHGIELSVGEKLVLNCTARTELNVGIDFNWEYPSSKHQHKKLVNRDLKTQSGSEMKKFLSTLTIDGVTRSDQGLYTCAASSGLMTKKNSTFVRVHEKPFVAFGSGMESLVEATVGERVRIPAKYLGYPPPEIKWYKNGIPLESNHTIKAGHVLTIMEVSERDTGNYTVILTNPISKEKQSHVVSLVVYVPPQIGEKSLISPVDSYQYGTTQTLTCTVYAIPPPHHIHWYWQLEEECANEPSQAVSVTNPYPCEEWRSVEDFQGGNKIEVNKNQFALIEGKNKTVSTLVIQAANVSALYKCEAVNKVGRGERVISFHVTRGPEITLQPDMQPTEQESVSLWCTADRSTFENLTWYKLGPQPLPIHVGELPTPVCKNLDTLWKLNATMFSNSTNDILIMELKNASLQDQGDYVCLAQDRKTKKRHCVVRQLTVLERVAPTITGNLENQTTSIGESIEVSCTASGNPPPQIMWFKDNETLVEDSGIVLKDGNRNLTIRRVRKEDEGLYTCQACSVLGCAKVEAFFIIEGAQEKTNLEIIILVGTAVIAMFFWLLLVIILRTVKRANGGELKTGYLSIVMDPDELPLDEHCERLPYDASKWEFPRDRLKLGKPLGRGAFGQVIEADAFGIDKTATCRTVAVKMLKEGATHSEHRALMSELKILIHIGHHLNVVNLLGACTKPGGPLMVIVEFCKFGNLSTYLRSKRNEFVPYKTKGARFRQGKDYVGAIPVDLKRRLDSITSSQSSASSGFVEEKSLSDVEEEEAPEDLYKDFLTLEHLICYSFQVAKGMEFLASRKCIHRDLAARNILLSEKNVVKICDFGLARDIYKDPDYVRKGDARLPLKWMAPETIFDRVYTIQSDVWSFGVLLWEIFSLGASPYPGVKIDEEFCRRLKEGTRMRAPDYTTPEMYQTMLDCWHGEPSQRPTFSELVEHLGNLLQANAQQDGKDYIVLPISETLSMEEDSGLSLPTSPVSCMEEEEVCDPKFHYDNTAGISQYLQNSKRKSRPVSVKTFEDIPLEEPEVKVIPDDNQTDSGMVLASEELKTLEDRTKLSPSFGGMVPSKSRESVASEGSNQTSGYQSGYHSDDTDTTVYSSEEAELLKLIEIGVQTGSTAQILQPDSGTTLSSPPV
T1 sequence (P00533 669-1210): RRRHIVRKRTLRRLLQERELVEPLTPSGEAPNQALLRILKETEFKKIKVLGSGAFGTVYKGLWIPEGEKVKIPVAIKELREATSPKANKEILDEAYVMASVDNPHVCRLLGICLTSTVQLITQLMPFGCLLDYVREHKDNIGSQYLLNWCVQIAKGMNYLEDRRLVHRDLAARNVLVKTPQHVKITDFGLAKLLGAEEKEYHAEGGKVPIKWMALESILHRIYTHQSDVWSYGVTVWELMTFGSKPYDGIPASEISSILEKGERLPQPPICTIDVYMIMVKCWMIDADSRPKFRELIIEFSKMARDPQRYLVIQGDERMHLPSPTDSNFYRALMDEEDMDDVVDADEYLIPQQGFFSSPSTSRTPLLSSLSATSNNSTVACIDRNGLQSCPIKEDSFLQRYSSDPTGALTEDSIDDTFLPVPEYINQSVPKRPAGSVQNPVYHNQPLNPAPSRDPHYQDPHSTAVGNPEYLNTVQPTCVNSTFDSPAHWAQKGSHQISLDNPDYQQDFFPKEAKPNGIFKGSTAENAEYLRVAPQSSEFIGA

| Compound | IC50 [1] [nM] | Experimental lipophilicity RMo ([2]; MeOH/water mobile phase) | Experimental lipophilicity Co ([2]; concentration of MeOH at RM = 0, in % (unit assumed)) | Bcl-2 Conc [3] [ng/mL] | IC50 [4] [nM] | inhibition at 10 µM [5] [%] | inhibition at 10 µM [6] [%] | inhibition at 10 µM [7] [%] | inhibition at 10 µM [8] [%] | inhibition at 10 µM [9] [%] | inhibition at 10 µM [10] [%] | inhibition at 10 µM [11] [%] | Bcl-2 Fold reduction ([3]; versus control) [fold] |
| --- | --- | --- | --- | --- | --- | --- | --- | --- | --- | --- | --- | --- | --- |
| COc1ccc(CSc2nc(-c3ccc(OC)cc3)cc(-c3cccc(OC)c3)n2)cc1 [Compound 22, 2-(4-Methoxybenzylthio)-6-(3-methoxyphenyl)-4-(4-methoxyphenyl)pyrimidine] | 1.15 ± 0.01 | 6.449 ± 0.05873 and 6.24 | 90.6598 and 87.7 | 0.90 |  |  |  |  |  |  |  |  |  |
| COc1ccc(CSc2nc(-c3ccc(Cl)cc3)cc(-c3ccc(OC)c(OC)c3)n2)cc1 [Compound 29, 2-(4-Methoxybenzylthio)-4-(4-chlorophenyl)-6-(3,4-dimethoxyphenyl)pyrimidine] | 1.6 ± 0.01 |  |  | 1.15 | 72 ± 5 | 22.8 | < 0 | 38.8 | 30.3 | 54.5 | 0.85 | 35.6 | 5 |
